Reference: ChEMBL document CHEMBL3596161, “Progress Toward the Development of Noscapine and Derivatives as Anticancer Agents” (J Med Chem, 2015)

Tests used:
[1] = Cytotoxicity against human NCI-ADR-RES cells expressing ABCB1
[2] = Cytotoxicity against human NCI/ADR cells; settings: NCI/ADR-RES
[3] = system: CCRF-CEM; experiment: Cytotoxicity against human CEM cells; type: functional, cell-based
[4] = system: HeLa; experiment: Cytotoxicity against human HeLa cells; type: functional, cell-based
[5] = system: A549; experiment: Cytotoxicity against human A549 cells; type: functional, cell-based
[6] = system: MCF7; experiment: Cytotoxicity against human MCF7 cells; type: functional, cell-based
[7] = Antitumor activity against human H460 cells xenografted in athymic nu/nu mouse assessed as tumor regression at 10 mg/kg/day, po administered for 24 days; type: functional, NCI-H460
[8] = Cytotoxicity against human MCF-7 FLV1000 cells expressing […]; type: functional, cell-based
[9] = target: Tubulin; experiment: Binding affinity to tubulin (unknown origin); type: protein-complex assay, Homo sapiens
[10] = system: HeLa; experiment: Antimitotic activity against human HeLa cells; type: functional, cell-based
[11] = system: HeLa; experiment: Cell cycle arrest in human HeLa cells assessed as accumulation at G2/M phase by measuring 4N DNA content at 6.4 uM by flow cytometry; type: functional
[12] = target: T1, Tubulin (Homo sapiens) (UniProt P68371+Q9H4B7+P0DPH7+P68366+Q13509+Q71U36+P04350+Q3ZCM7+P07437+P68363+Q9BQE3+Q6PEY2+Q13885+Q9BVA1+Q9BUF5); experiment: Inhibition of MAPs-rich tubulin (unknown origin) polymerization at 50 uM; type: protein-complex assay
[13] = system: HeLa; experiment: Cell cycle arrest in human HeLa cells assessed as accumulation at G1 phase after 24 hrs by FACS analysis (reference value: 45.2%); type: functional
[14] = system: HeLa; experiment: Cell cycle arrest in human HeLa cells assessed as accumulation at S phase after 24 hrs by FACS analysis (reference value: 12.9%); type: functional
[15] = system: HeLa; experiment: Cell cycle arrest in human HeLa cells assessed as accumulation at G2/M phase after 24 hrs by FACS analysis (reference value: 16.5%); type: functional
[16] = system: HeLa; experiment: Induction of apoptosis in human HeLa cells after 24 hrs; type: functional
[17] = system: HeLa; experiment: Growth inhibition in human HeLa cells assessed as reduction of growth at 50 uM; type: functional; settings: read-out: GI
[18] = target: T1, Tubulin (Homo sapiens); experiment: Inhibition of tubulin polymerization in human HeLa cells assessed as shortening of microtubules at 20 uM; type: cell-based; parameters: scale not given: the % may be the effect or the level left
[19] = target: T1, Tubulin (Homo sapiens); experiment: Inhibition of tubulin polymerization in human HeLa cells assessed as shortening of microtubules at 50 uM; type: cell-based; parameters: scale not given: the % may be the effect or the level left
[20] = target: T1, Tubulin (Homo sapiens); experiment: Inhibition of tubulin polymerization in human HeLa cells assessed as microtubules spent time in attenuated state at 50 uM; type: cell-based; parameters: scale not given: the % may be the effect or the level left
[21] = target: T1, Tubulin (Homo sapiens); experiment: Inhibition of tubulin polymerization in human HeLa cells assessed as polymeric tubulin level at 1 uM; type: cell-based; parameters: scale not given: the % may be the effect or the level left
[22] = target: T1, Tubulin (Homo sapiens); experiment: Inhibition of tubulin polymerization in human HeLa cells assessed as polymeric tubulin level at 10 uM; type: cell-based; parameters: scale not given: the % may be the effect or the level left
[23] = target: T1, Tubulin (Homo sapiens); experiment: Inhibition of tubulin polymerization in human HeLa cells assessed as polymeric tubulin level at 100 uM; type: cell-based; parameters: scale not given: the % may be the effect or the level left
[24] = system: C6; experiment: Antitumor activity against rat C6 cells xenografted in mouse assessed as reduction of tumor volume relative to control; type: functional
[25] = Antiproliferative activity against human LN229 cells assessed as decrease in colony formation; type: functional, cell-based; settings: LN-229
[26] = Antiproliferative activity against human A172 cells assessed as decrease in colony formation; type: functional, cell-based; settings: A 172
[27] = system: U-251; experiment: Antiproliferative activity against human U251 cells assessed as decrease in colony formation; type: functional, cell-based
[28] = system: U-251; experiment: Cell cycle arrest in human U251 cells assessed as accumulation at G1 phase at 30 uM after 24 hrs by flow cytomtery analysis (reference value: 59.62%); type: functional
[29] = system: U-251; experiment: Cell cycle arrest in human U251 cells assessed as accumulation at S phase at 30 uM after 24 hrs by flow cytomtery analysis (reference value: 18.08%); type: functional
[30] = system: U-251; experiment: Cell cycle arrest in human U251 cells assessed as accumulation at G2/M phase at 30 uM after 24 hrs by flow cytomtery analysis (reference value: 22.31%); type: functional
[31] = system: U-251; experiment: Cell cycle arrest in human TMZ-resistant U251 cells assessed as accumulation at G1 phase at 30 uM after 24 hrs by flow cytomtery analysis (reference value: 47.53%); type: functional
[32] = system: U-251; experiment: Cell cycle arrest in human TMZ-resistant U251 cells assessed as accumulation at S phase at 30 uM after 24 hrs by flow cytomtery analysis (reference value: 33.05%); type: functional
[33] = system: U-251; experiment: Cell cycle arrest in human TMZ-resistant U251 cells assessed as accumulation at G2/M phase at 30 uM after 24 hrs by flow cytomtery analysis (reference value: 19.42%); type: functional
[34] = Cytotoxicity against human H460 cells after 72 hrs; type: functional, cell-based; settings: NCI-H460, 72 h
[35] = Antitumor activity against human H460 cells xenografted in athymic nu/nu mouse assessed as tumor regression at 300 mg/kg/day, po administered for 24 days; type: functional, NCI-H460
[36] = Antitumor activity against human H460 cells xenografted in athymic nu/nu mouse assessed as tumor regression at 450 mg/kg/day, po administered for 24 days; type: functional, NCI-H460
[37] = Antitumor activity against human H460 cells xenografted in athymic nu/nu mouse assessed as tumor regression at 550 mg/kg/day, po administered for 24 days; type: functional, NCI-H460

COc1cc2c(c(OC)c1OC)-c1ccc(OC)c(=O)cc1[C@@H](NC(C)=O)CC2 [COLCHICINE]
IC50 [1]: 96 nM
IC50 [2]: 0.36 nM

COC(=O)CN1CCc2cc3c(c(OC)c2[C@@H]1[C@H]1OC(=O)c2c1ccc(OC)c2OC)OCO3
IC50 [3]: 9.5 µM
IC50 [4]: 22.3 µM
IC50 [5]: 45.4 µM
IC50 [6]: 36 µM

COc1ccc2c(c1OC)C(=O)O[C@@H]2[C@H]1c2c(cc3c(c2OC)OCO3)CCN1CC(C)=O
IC50 [3]: 6.9 µM
IC50 [4]: 15.8 µM
IC50 [5]: 28 µM
IC50 [6]: 25.3 µM

COc1cccc(CN2CCc3cc4c(c(OC)c3[C@@H]2[C@H]2OC(=O)c3c2ccc(OC)c3OC)OCO4)c1
IC50 [3]: 6.7 µM
IC50 [4]: 15.3 µM
IC50 [5]: 26.9 µM
IC50 [6]: 24.5 µM

COc1ccc2c(c1OC)C(=O)O[C@@H]2[C@H]1c2c(cc3c(c2OC)OCO3)CCN1Cc1cccc(Cl)c1
IC50 [3]: 11.9 µM
IC50 [4]: 28.3 µM
IC50 [5]: 61.3 µM
IC50 [6]: 45.8 µM

CC(=O)O[C@@]12CO[C@@H]1C[C@H](O)[C@@]1(C)C(=O)[C@H](O)C3=C(C)[C@@H](OC(=O)[C@H](O)[C@@H](NC(=O)OC(C)(C)C)c4ccccc4)C[C@@](O)([C@@H](OC(=O)c4ccccc4)[C@H]21)C3(C)C [DOCETAXEL ANHYDROUS]
Activity [7]: 93%

O=C1c2c(O)ccc(O)c2C(=O)c2c(NCCNCCO)ccc(NCCNCCO)c21 [MITOXANTRONE]
IC50 [6]: 0.026 µM
IC50 [8]: 435 nM

COc1ccc2c(c1OC)CO[C@@H]2[C@H]1c2c(c(Br)c3c(c2OC)OCO3)CCN1C
Kd [9]: 106 µM
EC50 [10]: 3.6 µM
Activity [11]: 72.7%

COc1ccc2c(c1OCCCS(=O)(=O)O)C(=O)O[C@@H]2[C@H]1c2c(c(Br)c3c(c2OC)OCO3)CCN1C
inhibition [12]: 61%

COc1ccc2c(c1OC)C(=O)O[C@@H]2[C@H]1c2c(cc3c(c2OC)OCO3)CCN1C [NOSCAPINE]
Activity [13]: 6.4%
Activity [14]: 11.1%
Activity [15]: 42.9%
Activity [16]: 50%
inhibition of growth at 50 µM [17]: 42.4%
Activity [18]: 21.6%
Activity [19]: 24.3%
Activity [20]: 12.7%
Activity [21]: 58.3%
Activity [22]: 59.2%
Activity [23]: 59.2%
growth inhibition (GI) [24]: 60%
IC50 [25]: 70 µM
IC50 [26]: 20 µM
IC50 [27]: 40 µM
Activity [28]: 28.92%
Activity [29]: 23.33%
Activity [30]: 47.75%
Activity [31]: 21.54%
Activity [32]: 25.33%
Activity [33]: 23.13%
IC50 [34]: 34.7 µM
Activity [35]: 49%
Activity [36]: 65%
Activity [37]: 86%
EC50 [10]: 18.4 µM
Activity [11]: 15.2%
IC50 [3]: 14.5 µM
IC50 [5]: 72.9 µM

COc1ccc2c(c1OC)C(=O)O[C@@H]2[C@H]1c2c(cc3c(c2OC)OCO3)CCN1Cc1ccc(Br)cc1
IC50 [3]: 9 µM
IC50 [4]: 21.2 µM
IC50 [5]: 42.4 µM
IC50 [6]: 34.1 µM
